One test relates to vines. The following applies: cited from earlier work.
Test [1] deals with banana plants. Briefly: Greenhouse test banana under zinc deficiency: leaf size and leaf weight. Format: in vivo. The following applies: 0% Zn supply. As for the experimental part: (§1) Greenhouse experiments (Examples A and B) were carried out to evaluate the effect of fungicide applications on the growth and development of plants cultivated under Zn deficiency, in particular the effect of Propineb and Mancozeb on the growth and development of banana and tomato plants. Banana plants and tomato plants of the cultivar “Harzfeuer” were cultivated on rock wool at different zinc regimes, 100% and 0% zinc level, with and without Propineb or Mancozeb applications.
(§2) Banana on rock wool has been sowed and approximately after 3 weeks, the plants have been transferred to rock wool bags. After the specified intervals the plants have been treated 2 times preventive or one time curative with Propineb and/or have been fertilized with a modified Hoagland solution which contained 100% or 0% zinc and having the composition as given below. The fertilization was carried out in combination with the irrigation, using a drip application system.
(§3) Propineb has been applied through spray application of commercially available Antracol 70WG solution (conc. 0.15% Propineb). Preventive treatments with Propineb were carried out 34 days and 57 days (Treatment No. 3) after sowing. Curative application of Propineb was carried out 85 days (Treatment No. 4) after sowing according to the following regime:
(§4) The effect of preventive and curative Propineb treatments on the growth and development of banana plants was evaluated by measuring the leaf size, leaf weight and the chlorophyll a fluorescence using a Handy PEA system. The assessment of Treatment No. 3 was carried out 101 days after sowing. The morphological assessment of Treatment No. 4 was carried out 121 days after sowing. The chlorophyll a fluorescence was measured 13 and 28 days after the curative application of Propineb.

Test [2] has as its system banana plants. Briefly: Greenhouse test banana under zinc deficiency: chlorophyll a fluorescence (Handy PEA). The note with it: 0% Zn supply, curative treatment. The format is in vivo. As for the experimental part:
as §1, §2, §3, §4
Fv/Fm: Fv/Fm is a parameter widely used to indicate the maximum quantum efficiency of photosystem II(PSII) This parameter is widely considered to be a selective indication of plant photosynthetic performance with healthy samples typically achieving a maximum Fv/Fm value of approx. 0.85. Values lower than this will be observed if a sample has been exposed to some type of biotic or abiotic stress factor which has reduced the capacity for photo-chemical quenching of energy within PSII. Fv/Fm is presented as a ratio of variable fluorescence (Fv) over the maximum fluorescence value (Fm). The Performance Index is essentially an indicator of sample vitality. (See e.g. Advanced Techniques in Soil Microbiology, 2007, 11, 319-341; Applied Soil Ecology, 2000, 15, 169-182.)

In test [3] the test system is tomato plants of the cultivar "Harzfeuer". Briefly: Greenhouse test tomato under zinc deficiency: plant weight and plant height. Format: in vivo. The following applies: 0% Zn supply. As to the method: as §1
Tomato on rock wool has been sowed and approximately after 3 weeks, the plants have been transferred to rock wool bags. After the specified intervals the plants have been treated either 2 times preventive or one time curative and have been fertilized with a modified Hoagland solution which contained 100% or 0% zinc and having the composition as given below. Propineb and Mancozeb were applied. The fertilization was carried out in combination with the irrigation, using a drip application system.
Propineb has been applied through spray application of commercially available Antracol 70WG solution (conc. 0.15% Propineb). Mancozeb has been applied as commercially available Dithane NeoTec® 75WG (conc. 0.15% Mancozeb). Preventive treatments with Propineb or Mancozeb were carried out 27 days and 57 days (Treatment No. 3 and Treatment No. 5) after sowing. Curative applications of Propineb or Mancozeb were carried out 95 days (Treatment No. 4 and Treatment No. 6) after sowing according to the following regime:
The effect of preventive and curative treatments of Propineb and Mancozeb on the growth and development of tomato plants was evaluated by measuring the plant weight and plant height. The assessment of Treatment No. 3 and Treatment No. 5 was carried out 95 days after sowing. The morphological assessment of Treatment No. 4 and Treatment No. 6 was carried out 132 days after sowing.

Setting [4] is: curative spray 85 days after sowing (0.15% Propineb), assessed 121 days after sowing.
Setting [5] is: preventive spray 34 and 57 days after sowing (0.15% Propineb), assessed 101 days after sowing.
The mark [6] stands for this setting: 1st measurement (13 days after curative application).
The mark [7] stands for this setting: 2nd measurement (28 days after curative application).
Where [8] appears, read: curative spray 95 days after sowing (conc. 0.15%), assessed 132 days after sowing.
[9] abbreviates: preventive spray 27 and 57 days after sowing (conc. 0.15%), assessed 95 days after sowing.

Read-outs that look alike come from different tables or passages of the source.

As to `S=C(S)NCCNC(=S)S` [Zineb], the “yield and growth compared to untreated vines” value in the test with vines (vines, ISHS Acta Horticulturae 1987, 199, 157-161) was “significantly greater yield and growth”.
For the molecule Propineb, in the test with banana plants [1] (setting [4]), the Leaf size is on record as 2101 ± 612 cm^2 and the Leaf weight turned out to be 90 g. Moreover, in the test on banana plants [1] (setting [5]), the Average leaf size is 2062 ± 284 cm^2 and the Average leaf weight is 76 g. In addition, in the test on banana plants [2] (setting [6]), the Fv/Fm was found to be 0.82 and the Performance index is given as 2.21. In the test on banana plants [2] (setting [7]), the Fv/Fm turned out to be 0.83 and the Performance index worked out at 2.69. The Plant weight in test [3] (setting [8]) is 568 g. Also, in test [3] (setting [9]), the Plant height came to 76 and the Plant weight is given as 341 g.
Take Mancozeb: the Plant weight in test [3] (setting [8]) was determined as 409 g. Moreover, in test [3] (setting [9]), the Plant height came to 64 and the Plant weight came to 249 g.
Turning to `O=S(=O)([O-])[O-].[Zn+2]` [zinc sulfate], the “yield and growth compared to untreated vines” value with vines (in vivo) was “significantly greater yield and growth”.

(Values after patent US20110218107A1 (priority 2010, published 2011).)
